Assay results published in ChEMBL document CHEMBL1152921 (Eur J Med Chem, 2009).
The source made the active and inactive calls. The calls are words filed in the database; no cut-off is given here. Where a SMILES comes first, the peptide text is derived from it. Bridges are numbered along the chain shown (N, C = ends). [ ]: non-standard residue; d: D form. Aic = NC1(C(=O)O)Cc2ccccc2C1

Legend:
Rattus norvegicus [1] = assay: (§1) Antidiuretic activity in fasted and hydrated Wistar rat assessed as compound potency to yield antidiuresis time of 60 mins required for urinary excretion of half the water load at 0.001 to 100 nmol/kg, sc administered immediately after water loading by modified Burn test relative to 1-deamino-8-D-arginine vasopressin; type: functional, Urine
Rattus norvegicus [2] = assay: Antidiuretic activity in fasted and hydrated Wistar rat assessed as compound required to yield antidiuresis time of 200 mins required for urinary excretion of half the water load at 0.001 to 100 nmol/kg, sc administered immediately after water loading by modified Burn test; type: functional, Urine
Rattus norvegicus [3] = assay: as §1, with “200” for “60”; type: functional, Urine
Rattus norvegicus [4] = assay: Antidiuretic activity in fasted and hydrated Wistar rat assessed as compound required to yield antidiuresis time of 60 mins required for urinary excretion of half the water load at 0.001 to 100 nmol/kg, sc administered immediately after water loading by modified Burn test; type: functional, Urine
Vasopressin V1a receptor = Vasopressin V1a receptor (Rattus norvegicus, UniProt P30560); assay: Antagonist activity at vasopressin V1a receptor in phenoxybenzamine-treated Wistar rat uterus assessed as inhibition of vasopressin-induced arterial vasopressor activity treated 1 min prior to vasopressin challenge; type: functional, tissue-based; details: for Kb: read-out: pA2 (converted)
Rattus norvegicus [5] = assay: Activity at vasopressin V1a receptor in phenoxybenzamine-treated Wistar rat uterus assessed as induction of arterial vasopressor activity up to 0.15 mg/kg; type: functional, organism-based; set-up: dose 0.15 mg/kg
[6] = target: Vasopressin V1a receptor (Rattus norvegicus) (UniProt P30560); assay: Agonist activity at vasopressin V1a receptor in phenoxybenzamine-treated Wistar rat uterus assessed as arterial vasopressor activity; type: functional, tissue-based
Oxytocin receptor = target: T1, Oxytocin receptor (Rattus norvegicus, UniProt P70536); type: functional, tissue-based, Wistar, Uterus
T1 sequence (P70536 whole entry): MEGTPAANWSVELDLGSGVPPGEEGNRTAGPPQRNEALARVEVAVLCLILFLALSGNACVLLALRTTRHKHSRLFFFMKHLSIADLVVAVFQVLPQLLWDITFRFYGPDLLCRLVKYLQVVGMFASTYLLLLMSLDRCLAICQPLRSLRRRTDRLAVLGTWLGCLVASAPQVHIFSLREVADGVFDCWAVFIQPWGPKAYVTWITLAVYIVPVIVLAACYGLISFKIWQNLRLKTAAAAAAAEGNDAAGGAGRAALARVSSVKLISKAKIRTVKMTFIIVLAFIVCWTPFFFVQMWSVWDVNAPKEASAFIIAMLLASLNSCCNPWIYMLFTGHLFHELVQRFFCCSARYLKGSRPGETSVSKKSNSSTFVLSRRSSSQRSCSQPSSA

[7] = Volume of distribution in Wistar rat; type: ADME, organism-based; details: in vivo

Vasopressin V1a receptor, sequence (P30560 whole entry): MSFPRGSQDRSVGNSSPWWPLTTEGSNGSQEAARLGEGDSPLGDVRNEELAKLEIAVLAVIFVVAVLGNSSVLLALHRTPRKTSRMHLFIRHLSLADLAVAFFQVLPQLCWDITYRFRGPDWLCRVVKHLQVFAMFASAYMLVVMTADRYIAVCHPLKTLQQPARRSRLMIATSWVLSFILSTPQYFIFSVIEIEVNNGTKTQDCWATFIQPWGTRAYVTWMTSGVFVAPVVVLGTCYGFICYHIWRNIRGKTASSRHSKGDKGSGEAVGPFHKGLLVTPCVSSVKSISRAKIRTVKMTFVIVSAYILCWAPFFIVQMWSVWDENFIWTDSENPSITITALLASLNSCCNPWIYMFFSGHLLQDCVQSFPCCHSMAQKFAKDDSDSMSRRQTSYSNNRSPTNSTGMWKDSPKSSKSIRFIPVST
Vasopressin V1a receptor (Rattus norvegicus), sequence (P30560 whole entry, looked up): as the sequence (P30560 whole entry) above

## N=C(N)NCCC[C@@H](NC(=O)[C@@H]1CCCN1C(=O)[C@@H]1CSSCCC(=O)N[C@H](C(c2ccccc2)c2ccccc2)C(=O)N[C@@H](Cc2ccccc2)C(=O)N[C@@H](CCC(N)=O)C(=O)N[C@@H](CC(N)=O)C(=O)N1)C(=O)NCC(N)=O
Rattus norvegicus [1]
  Activity: 200%
Rattus norvegicus [2]
  Activity: 225000 IU/mg
Rattus norvegicus [3]
  Activity: 100%
Rattus norvegicus [4]
  Activity: 9000 IU/mg

## CC(C)[C@@H]1NC(=O)[C@H](Cc2ccccc2)NC(=O)[C@@H](C(c2ccccc2)c2ccccc2)NC(=O)CCSSC[C@@H](C(=O)N2CCC[C@H]2C(=O)N[C@@H](CCCNC(=N)N)C(=O)NCC(N)=O)NC(=O)[C@H](CC(N)=O)NC1=O (stereo in doubt)
Vasopressin V1a receptor
  Kb: > 1.58 µM

## N=C(N)NCCC[C@@H](NC(=O)[C@@H]1CCCN1C(=O)[C@@H]1CSSCCC(=O)N[C@@H](Cc2ccc(O)cc2)C(=O)N[C@@H](Cc2ccccc2)C(=O)N[C@@H](CCC(N)=O)C(=O)N[C@@H](CC(N)=O)C(=O)N1)C(=O)NCC(N)=O [DESMOPRESSIN]
Rattus norvegicus [1]
  Activity: 100%
Rattus norvegicus [3]
  Activity: 100%
Rattus norvegicus [4]
  Activity: 800 IU/mg

## N=C(N)NCCC[C@H](NC(=O)[C@@H]1CCCN1C(=O)[C@@H]1CSSC2(CCCCC2)CC(=O)N[C@@H](C(c2ccccc2)c2ccccc2)C(=O)N[C@@H](Cc2ccccc2)C(=O)N[C@@H](CCC(N)=O)C(=O)N[C@@H](CC(N)=O)C(=O)N1)C(=O)NCC(N)=O
Rattus norvegicus [1]
  Activity: <0.1%
Rattus norvegicus [5]
  Activity: inactive
Rattus norvegicus [2]
  Activity: <4.5 IU/mg
Rattus norvegicus [3]
  Activity: <0.1%
Rattus norvegicus [4]
  Activity: <4.5 IU/mg

## CC(C)[C@@H]1NC(=O)[C@H](Cc2ccccc2)NC(=O)[C@H](C(c2ccccc2)c2ccccc2)NC(=O)CCSSC[C@@H](C(=O)N2CCC[C@H]2C(=O)N[C@H](CCCNC(=N)N)C(=O)NCC(N)=O)NC(=O)[C@H](CC(N)=O)NC1=O (stereo in doubt; form 1) [listing 1 of 2 here]
Rattus norvegicus [1]
  Activity: 2.2%
Rattus norvegicus [2]
  Activity: 4500 IU/mg
Rattus norvegicus [3]
  Activity: 1.8%
Rattus norvegicus [4]
  Activity: 100 IU/mg

## N=C(N)NCCC[C@H](NC(=O)[C@@H]1CCCN1C(=O)[C@@H]1CSSC[C@H](N)C(=O)NC2(Cc3ccccc3C2)C(=O)N[C@@H](Cc2ccccc2)C(=O)N[C@@H](CCC(N)=O)C(=O)N[C@@H](CC(N)=O)C(=O)N1)C(=O)NCC(N)=O (H-C[Aic]FQNCPRG-NH2; disulfide 1-6)
[6]
  Activity: 9.4 IU/mg
Rattus norvegicus [1]
  Activity: 10%
Rattus norvegicus [2]
  Activity: 45000 IU/mg
Rattus norvegicus [3]
  Activity: 18%
Rattus norvegicus [4]
  Activity: 450 IU/mg

## CC(C)[C@@H]1NC(=O)[C@H](Cc2ccccc2)NC(=O)[C@H](Cc2ccc(O)cc2)NC(=O)[C@@H](N)CSSC[C@@H](C(=O)N2CCC[C@H]2C(=O)N[C@@H](CCCNC(=N)N)C(=O)NCC(N)=O)NC(=O)[C@H](CC(N)=O)NC1=O (H-CYFVNCPRG-NH2; disulfide 1-6)
[6]
  Activity: 32 IU/mg
Rattus norvegicus [4]
  Activity: 758 IU/mg

## N=C(N)NCCC[C@@H](NC(=O)[C@@H]1CCCN1C(=O)[C@@H]1CSSCCC(=O)N[C@@H](C(c2ccccc2)c2ccccc2)C(=O)N[C@@H](Cc2ccccc2)C(=O)N[C@@H](CCC(N)=O)C(=O)N[C@@H](CC(N)=O)C(=O)N1)C(=O)NCC(N)=O
Rattus norvegicus [1]
  Activity: 0.7%
Rattus norvegicus [5]
  Activity: inactive
Rattus norvegicus [2]
  Activity: 20000 IU/mg
Rattus norvegicus [3]
  Activity: 8%
Rattus norvegicus [4]
  Activity: 30 IU/mg

## N=C(N)NCCC[C@H](NC(=O)[C@@H]1CCCN1C(=O)[C@@H]1CSSC2(CCCCC2)CC(=O)N[C@H](C(c2ccccc2)c2ccccc2)C(=O)N[C@@H](Cc2ccccc2)C(=O)N[C@@H](CCC(N)=O)C(=O)N[C@@H](CC(N)=O)C(=O)N1)C(=O)NCC(N)=O
Vasopressin V1a receptor
  pA2: 7.4
Oxytocin receptor
  pA2: 6.83

## CC(C)[C@@H]1NC(=O)[C@H](Cc2ccccc2)NC(=O)[C@H](C(c2ccccc2)c2ccccc2)NC(=O)CCSSC[C@@H](C(=O)N2CCC[C@H]2C(=O)N[C@H](CCCNC(=N)N)C(=O)NCC(N)=O)NC(=O)[C@H](CC(N)=O)NC1=O (stereo in doubt; form 1) [listing 2 of 2 here]
Rattus norvegicus [5]
  Activity: inactive

## N=C(N)NCCC[C@@H](NC(=O)[C@@H]1CCCN1C(=O)[C@@H]1CSSC[C@H](N)C(=O)N[C@@H](C(c2ccccc2)c2ccccc2)C(=O)N[C@@H](Cc2ccccc2)C(=O)N[C@@H](CCC(N)=O)C(=O)N[C@@H](CC(N)=O)C(=O)N1)C(=O)NCC(N)=O
Rattus norvegicus [1]
  Activity: 0.7%
Rattus norvegicus [5]
  Activity: inactive
Rattus norvegicus [2]
  Activity: 3000 IU/mg
Rattus norvegicus [3]
  Activity: 1.2%
Rattus norvegicus [4]
  Activity: 30 IU/mg

## N=C(N)NCCC[C@H](NC(=O)[C@@H]1CCCN1C(=O)[C@@H]1CSSCCC(=O)N[C@H](C(c2ccccc2)c2ccccc2)C(=O)N[C@@H](Cc2ccccc2)C(=O)N[C@@H](CCC(N)=O)C(=O)N[C@@H](CC(N)=O)C(=O)N1)C(=O)NCC(N)=O
Rattus norvegicus [1]
  Activity: 100%
Rattus norvegicus [5]
  Activity: inactive
Rattus norvegicus [2]
  Activity: 200000 IU/mg
Rattus norvegicus [3]
  Activity: 80%
Rattus norvegicus [4]
  Activity: 4500 IU/mg

## N=C(N)NCCC[C@H](NC(=O)[C@@H]1CCCN1C(=O)[C@@H]1CSSCCC(=O)NC(C(c2ccccc2)c2ccccc2)C(=O)N[C@@H](Cc2ccccc2)C(=O)N[C@@H](CCC(N)=O)C(=O)N[C@@H](CC(N)=O)C(=O)N1)C(=O)NCC(N)=O (single isomer, unassigned)
Rattus norvegicus [1]
  Activity: 10%
Rattus norvegicus [2]
  Activity: 45000 IU/mg
Rattus norvegicus [3]
  Activity: 18%
Rattus norvegicus [4]
  Activity: 450 IU/mg

## N=C(N)NCCCC(NC(=O)[C@@H]1CCCN1C(=O)[C@@H]1CSSCCC(=O)N[C@@H](Cc2ccc(O)cc2)C(=O)N[C@@H](Cc2ccccc2)C(=O)N[C@@H](CCC(N)=O)C(=O)N[C@@H](CC(N)=O)C(=O)N1)C(=O)NCC(N)=O (single isomer, unassigned) [DESMOPRESSIN]
Rattus norvegicus [1]
  Activity: 73.9%
Rattus norvegicus [3]
  Activity: 97.3%
Rattus norvegicus [4]
  Activity: 1300 IU/mg

## CC(C)[C@@H]1NC(=O)[C@H](Cc2ccccc2)NC(=O)[C@H](C(c2ccccc2)c2ccccc2)NC(=O)CCSSC[C@@H](C(=O)N2CCC[C@H]2C(=O)N[C@@H](CCCNC(=N)N)C(=O)NCC(N)=O)NC(=O)[C@H](CC(N)=O)NC1=O
Rattus norvegicus [1]
  Activity: 2.2%
Rattus norvegicus [5]
  Activity: inactive
Rattus norvegicus [2]
  Activity: 20000 IU/mg
Rattus norvegicus [3]
  Activity: 8%
Rattus norvegicus [4]
  Activity: 100 IU/mg

## CC(C)[C@@H]1NC(=O)[C@H](Cc2ccccc2)NC(=O)[C@H](C(c2ccccc2)c2ccccc2)NC(=O)CCSSC[C@@H](C(=O)N2CCC[C@H]2C(=O)N[C@H](CCCNC(=N)N)C(=O)NCC(N)=O)NC(=O)[C@H](CC(N)=O)NC1=O (stereo in doubt; form 2)
Rattus norvegicus [1]
  Activity: 100%
Rattus norvegicus [2]
  Activity: 450000 IU/mg
Rattus norvegicus [3]
  Activity: 150%
Rattus norvegicus [4]
  Activity: 4500 IU/mg

## N=C(N)NCCC[C@H](NC(=O)[C@@H]1CCCN1C(=O)[C@@H]1CSSC[C@H](N)C(=O)N[C@@H](Cc2ccc(O)cc2)C(=O)N[C@@H](Cc2ccccc2)C(=O)N[C@@H](CCC(N)=O)C(=O)N[C@@H](CC(N)=O)C(=O)N1)C(=O)NCC(N)=O [VASOPRESSIN]
Rattus norvegicus [1]
  Activity: 10%
Rattus norvegicus [2]
  Activity: 450 IU/mg
Rattus norvegicus [3]
  Activity: 0.125%
Rattus norvegicus [4]
  Activity: 450 IU/mg
[7]
  Vd: 0.067 L/kg

## NC(=O)CC[C@@H]1NC(=O)[C@H](Cc2ccccc2)NC(=O)[C@H](Cc2ccc(O)cc2)NC(=O)[C@@H](N)CSSC[C@@H](C(=O)N2CCC[C@H]2C(=O)N[C@H](CCCN=C(N)N)C(=O)NCC(N)=O)NC(=O)[C@H](CC(N)=O)NC1=O
Rattus norvegicus [1]
  Activity: 23.2%
Rattus norvegicus [3]
  Activity: 1.7%
Rattus norvegicus [4]
  Activity: 111 IU/mg

## CC(C)[C@@H]1NC(=O)[C@H](Cc2ccccc2)NC(=O)[C@@H](C(c2ccccc2)c2ccccc2)NC(=O)CCSSC[C@@H](C(=O)N2CCC[C@H]2C(=O)N[C@H](CCCNC(=N)N)C(=O)NCC(N)=O)NC(=O)[C@H](CC(N)=O)NC1=O
Rattus norvegicus [1]
  Activity: 200%
Rattus norvegicus [2]
  Activity: 450000 IU/mg
Vasopressin V1a receptor
  Kb: > 1.58 µM
Rattus norvegicus [3]
  Activity: 150%
Rattus norvegicus [4]
  Activity: 9000 IU/mg
